These results are taken from patent publication US20190345191A1, “CYCLIC DINUCLEOTIDE ANALOGS FOR TREATING CONDITIONS ASSOCIATED WITH STING (STIMULATOR OF INTERFERON GENES) ACTIVITY” (Innate Tumor Immunity, Inc., priority 2016, published 2019).

The subject of this assay is STING pathway. Kind of assay: STING pathway activation in THP1-Dual cells, NFκB pathway SEAP reporter. The assay is classed as cell-based. Conditions: Homo sapiens, NFκB pathway reporter (secreted embryonic alkaline phosphatase, QUANTI-Blue, 620 nm), 24-hour or 48-hour assay duration not specified. Here is the method: STING pathway activation by the compounds described herein was measured using THP1-Dual™ cells. These cells are THP1 monocytes that have been modified to be reporters for the NFκB pathway (by inducing secreted embryonic alkaline phosphatase (SEAP) expression) and the IRF pathway (by inducing secreted luciferase (LUCIA)). Both of these pathways are activated by STING agonists in these cells.
THP1 Dualtm cells (obtained from Invivogen) are maintained in a cell growth medium that includes Roswell Park Memorial Institute medium (RPMI), 10% fetal calf serum (FCS), 100 U/ml Pen/Strep, 2 mM L-glut, 10 mM Hepes, and 1 mM sodium pyruvate. Prior to the assay, the cells were transferred to an assay medium that includes RPMI, 5% FCS, 100 U/ml Pen/Strep, 2 mM L-glut, 10 mM Hepes, and 1 mM sodium pyruvate. Cells were then counted and evaluated for viability by trypan blue exclusion assay.
The compounds of the present invention can be assayed using, for example, the following procedure. Compounds were dissolved in water or DMSO depending, for example, on their solubility in water or DMSO. […]
To carry out the secreted embryonic alkaline phosphatase reporter, 10 μL of cell supernatant was mixed with 90 μL of QUANTI-Blue in a flat-bottom 384 well plate. […] SEAP activity was measured using a spectrophotometer set at 620 nm. […] Luminescence of the wells was then measured.

In turn, `Nc1ncnc2c1ncn2[C@@H]1O[C@@H]2CNC(=S)N[C@H]3[C@@H](O)[C@H](n4cnc5c(N)ncnc54)O[C@@H]3CNC(=S)N[C@H]2[C@H]1O` [Compound 30, (2R,3R,3aS,7aR,9R,10R,10aS,14aR)-2,9-bis(6-amino-9H-purin-9-yl)-3,10-dihydroxydodecahydrodifuro[3,2-d:3′,2′-j][,3,7,9]tetraazacyclododecine-5,12(4H,6H)-dithione] returned an IC50 of 25.4 µM.
To `Nc1ncnc2c1ncn2[C@@H]1O[C@@H]2CNC(=O)N[C@H]3[C@@H](O)[C@H](n4cnc5c(N)ncnc54)O[C@@H]3CNC(=O)N[C@H]2[C@H]1O` [Compound 31, (2R,3R,3aS,7aR,9R,10R,10aS,14aR)-2,9-bis(6-amino-9H-purin-9-yl)-3,10-dihydroxydodecahydrodifuro[3,2-d:3′,2′-j][1,3,7,9]tetraazacyclododecine-5, 12(4H,6H)-dione] belongs 22.2 µM.
